Assay results reported in publication PMC4865820, “Branched Peptide, B2088, Disrupts the Supramolecular Organization of Lipopolysaccharides and Sensitizes the Gram-negative Bacteria” (Scientific Reports, 2016).
Positions of bridges follow the written chain, without caps; N, C: chain ends. Non-standard residues stand in square brackets, D forms with d. Residues, ends and D or L forms follow the SMILES beside them. Chains are numbered I, II in the order given. *: point of attachment. X1 = CC[C@H](C)CCCCC(=O)*; Dab = NCC[C@H](N)C(=O)O

Assays:
[1] = system: E. coli D21 and LPS outer core polysaccharide truncated mutant strains; assay: MIC ratio against LPS-truncated E. coli mutants; format: cell-based; conditions: oligosaccharide-truncated mutants vs wild type D21; increase seen against D21e9 lacking outer core polysaccharides
Text: LPS is a complex glycosylated lipid molecule comprising of a hydrophobic lipid A and core oligosaccharides. The core oligosaccharides are structurally divided into an inner core (lipid A proximal) region and an outer core O-antigen region (Fig. 4a). To ascertain if the alterations in OM polysaccharides modify the barrier penetration and antimicrobial properties of the peptides, we determined the MIC of the peptides against 4 cell-wall defective mutants of E. coli (Fig. 4a). We report the MIC ratio (i.e., MICmut/MICwt) which is the ratio of MIC of peptides/antibiotics against oligosaccharides truncated mutant strains over MIC of wild type (D21) strains. For antibiotics that access intracellular targets through porin pathways or peptides that bind to the lipid A part of the LPS, the MIC ratio is independent of LPS truncation (Fig. 4b). However, antibiotics or peptides which interact with outer or inner core polysaccharides of the LPS are expected to show changes in the MIC ratio.
All the peptide congeners were purchased from M/s. Mimotopes Pty Ltd, Australia. The peptides were used as such and the homogeneity of peptides were confirmed by HPLC. Unless otherwise stated all the chemicals and the antibiotics tested were purchased from Sigma Aldrich (Singapore) Pte Ltd. The florescent probe, BODIPY TR cadaverine (BC) was purchased from Molecular Probes/ Invitrogen (CA, USA). E. coli LPS outer core polysaccharide truncated mutant strains were obtained from CGSG, The Coli Genetic Stock Centre, Yale University, […], USA. Relevant genotype of the strains are, D21 (rfa+); D21e19 (rfa-11) is a deficient mutant in carbohydrates close to the O-antigen part; D21e7 (rfa-1) is deficient in galactose as well as O-antigen; D21f1 (rfa-1, rfa21) lacks phosphate groups in the LPS has glucose and heptose intact; D21f2 (rfa-1, rfa-31) is deficient in heptose of the inner core[57][58].
MIC of each peptide was determined using the microdilution method in a 96 well microtitre plates (SPL Life Sciences Co., Ltd, Korea). Two-fold serial dilutions of each peptide in Mueller-Hinton Broth (MHB) was prepared from a 1 mg/ml stock solution of the peptide in the same broth, to obtain a final concentration in the range of 0.0976–50 μg/ml in each well. Bacterial suspensions (P. aeruginosa ATCC 27853, P. aeruginosa 4877, P. aeruginosa 23155, K. pneumoniae ATCC 10031 and K. pneumoniae 4299) were prepared by suspending the overnight cultured bacteria in saline and adjusting the inoculum to ~10^8 colony forming units (CFU) per ml. A further 150-fold dilution was then prepared in MHB to achieve a final cell density of 10^5–10^6 CFU/ml. In each well, 100 μl of inoculum was mixed with the equal volume of peptides at their 2× concentration. Positive and negative controls contained 200 μl of inoculum (without any peptide) and broth alone (no peptide/inoculum) respectively. Another negative control in which MHB containing 200 μl of peptide alone in its highest concentration tested (50 μg/ml) was also included to ensure that the optical density measured in the test wells was not due to turbidity of the peptides in solution. The 96 well polystyrene plates were then incubated at 37 °C for 24 h and the optical density at 600 nm (OD600) was measured every 30 min continuously using a TECAN microplate reader (TECAN Infinite 200, Austria). All the experiments were performed in two independent duplicates and the MIC was determined as the lowest peptide concentration in which no visible growth was observed.

[2] = system: K. pneumonia 31158; assay: Checkerboard assay; format: cell-based, K. pneumoniae; conditions: for Fractional inhibitory concentration of B2088 used for FICI calculation: first number in parenthesis, in combination with the labelled antibiotic; for Fractional inhibitory concentration of antibiotic used for FICI calculation: second number in parenthesis, in combination with B2088
Experimental: (§1) The synergism between peptides with conventional antibiotics was evaluated using checkerboard assays. For a comparison polymyxin B (PMB) was also tested against each antibiotic. From their stock solutions, two-fold dilutions of each antibiotic and peptide to 1× MIC were prepared in MHB. 50 μl of each peptide concentration was added into the wells of a 96-well polystyrene plates (SPL Life Sciences Co. Ltd, Korea) in a horizontal orientation and the same volume of each antibiotic concentration were then added in a vertical orientation. Bacterial suspensions were prepared in MHB to yield final cell density of ~10^6 CFU/ml and 100 μl of bacterial suspension was mixed with each peptide-antibiotic combinations. This procedure was repeated for wells containing 200 μl of peptide alone and 200 μl of antibiotic alone in various concentrations. The positive and negative controls contained 200 μl of inoculum and MHB alone respectively. The plates were incubated at 37 °C for 24 hours and the optical density at 600 nm (OD600) was monitored as before. Fractional inhibitory concentration index (FICI) for all antibiotic- peptide combinations was calculated through the summation of (MIC of peptide in the combination/ MIC of peptide alone) and (MIC of antibiotics in combination/MIC of antibiotic alone). The experiments were performed in two independent duplicates and the combinations that gave the lowest FICI values was reported.

[3] = system: K. pneumonia 07955; assay: Checkerboard assay; format: cell-based, K. pneumoniae; conditions: for Fractional inhibitory concentration of B2088 used for FICI calculation: first number in parenthesis, in combination with the labelled antibiotic; for Fractional inhibitory concentration of antibiotic used for FICI calculation: second number in parenthesis, in combination with B2088
Experimental: as §1

[4] = system: K. pneumonia 4299; assay: Checkerboard assay; format: cell-based, K. pneumoniae; conditions: for Fractional inhibitory concentration of B2088 used for FICI calculation: first number in parenthesis, in combination with the labelled antibiotic; for Fractional inhibitory concentration of antibiotic used for FICI calculation: second number in parenthesis, in combination with B2088
Experimental: as §1

| Structure (SMILES) | MIC ratio (MICmut/MICwt) [1] | Fractional Inhibitory Concentration Index of B2088 with the antibiotic [2] | Fractional inhibitory concentration of B2088 used for FICI calculation [2] | Fractional inhibitory concentration of antibiotic used for FICI calculation [2] | Fractional Inhibitory Concentration Index of B2088 with the antibiotic [3] | Fractional inhibitory concentration of B2088 used for FICI calculation [3] | Fractional inhibitory concentration of antibiotic used for FICI calculation [3] | Fractional Inhibitory Concentration Index of B2088 with the antibiotic [4] | Fractional inhibitory concentration of B2088 used for FICI calculation [4] | Fractional inhibitory concentration of antibiotic used for FICI calculation [4] |
| --- | --- | --- | --- | --- | --- | --- | --- | --- | --- | --- |
| CC(C)[C@H](NC(=O)[C@H](CCCCN)NC(=O)[C@H](CCCNC(=N)N)NC(=O)CNC(=O)[C@@H](N)CCCNC(=N)N)C(=O)N[C@H](C(=O)N[C@@H](CCCNC(=N)N)C(=O)N[C@@H](CCCNC(=N)N)C(=O)NCCCC[C@H](NC(=O)[C@H](CCCNC(=N)N)NC(=O)[C@H](CCCNC(=N)N)NC(=O)[C@@H](NC(=O)[C@@H](NC(=O)[C@H](CCCCN)NC(=O)[C@H](CCCNC(=N)N)NC(=O)CNC(=O)[C@@H](N)CCCNC(=N)N)C(C)C)C(C)C)C(=O)N[C@@H](CCCCN)C(=O)O)C(C)C [B2088] (I: H-RGRKVVRRKK-OH / II: H-RGRKVVRR; amide I:9-II:C; N-terminus and C-terminus assumed) | no apparent change |  |  |  |  |  |  |  |  |  |
| COc1c(N2CCNC(C)C2)c(F)cc2c(=O)c(C(=O)O)cn(C3CC3)c12 (stereo not drawn) [Gatifloxacin] |  | 0.56 | 0.06 | 0.5 | 0.63 | 0.13 | 0.5 | 0.56 | 0.06 | 0.5 |
| CC[C@H](C)CCCCC(=O)N[C@@H](CCN)C(=O)N[C@H](C(=O)N[C@@H](CCN)C(=O)N[C@H]1CCNC(=O)[C@H]([C@@H](C)O)NC(=O)[C@H](CCN)NC(=O)[C@H](CCN)NC(=O)[C@H](CC(C)C)NC(=O)[C@@H](Cc2ccccc2)NC(=O)[C@H](CCN)NC1=O)[C@@H](C)O [Polymyxin B, polymyxin B, reference compound] (X1-[Dab]T[Dab][Dab][Dab][dF]L[Dab][Dab]T; lactam 4-C (inferred); N-terminus assumed) | did not show any change |  |  |  |  |  |  |  |  |  |
| NC[C@H]1O[C@H](O[C@H]2[C@H](O)[C@@H](O[C@H]3O[C@H](CO)[C@@H](O)[C@H](N)[C@H]3O)[C@H](N)C[C@@H]2N)[C@H](N)C[C@@H]1O [Tobramycin] | marked increase | 0.25 | (0.125,0.125) | (0.125,0.125) | 0.75 | 0.5 | 0.25 | 0.25 | (0.125,0.125) | (0.125,0.125) |
